This assay has as its target M. tb PII (GlnB) (Mycobacterium tuberculosis, UniProt P9WN31).

Each structure is given as a SMILES string.

Chain of M. tb PII (GlnB) (P9WQ65 417-477): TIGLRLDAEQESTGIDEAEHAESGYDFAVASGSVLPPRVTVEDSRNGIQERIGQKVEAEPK
Chain of M. tb PII (GlnB) (P9WN31 whole entry): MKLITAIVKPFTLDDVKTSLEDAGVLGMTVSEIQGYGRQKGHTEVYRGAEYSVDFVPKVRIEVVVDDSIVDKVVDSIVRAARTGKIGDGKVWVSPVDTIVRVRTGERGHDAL

For the compound `O=C(O)CCC(=O)C(=O)O` [2-oxoglutarate], the “Ni-NTA pull-down of AmtCTR by His-PII, SDS-PAGE” value is “PII is able to interact with AmtCTR being negatively modulated by 2-OG”.

The record behind these values is article PMC11001197, “The PII protein interacts with the Amt ammonium transport and modulates nitrate/nitrite assimilation in mycobacteria” (Frontiers in Microbiology, 2024).
